Test results as given in ChEMBL document CHEMBL4138090, “4-Phenyl quinoline derivatives as potential serotonin receptor ligands with antiproliferative activity” (Eur J Med Chem, 2017).
The source made the active and inactive calls. The calls are words filed in the database; no cut-off is given here.

Key:
[1] = tested on: MCF7; test: Cell cycle arrest in human MCF7 cells assessed as accumulation at G2/M phase after 48 hrs by propidium iodide staining based flow cytometry; type: functional
[2] = tested on: MCF7; test: Cell cycle arrest in human MCF7 cells assessed as accumulation at sub-G0/G1 phase after 48 hrs by propidium iodide staining based flow cytometry; type: functional
[3] = tested on: MCF7; test: Induction of morphological changes in human MCF7 cells assessed as cell detachment at 5 uM after 72 hrs; type: functional, cell-based
[4] = tested on: MCF7; test: Antiproliferative activity against human MCF7 cells at 5 uM after 72 hrs by MTT assay; type: functional, cell-based
[5] = Cytotoxicity against HEK293 cells assessed as reduction in cell viability after 72 hrs by MTT assay; type: cell-based; conditions: human, read-out: LD50
[6] = molecular target: 5-hydroxytryptamine receptor 2A (Homo sapiens) (UniProt P28223); test: Antagonist activity at 5-HT2A receptor in human MCF7 cells assessed as inhibition of serotonin-induced calcium flux at 5 uM measured at 5 secs time interval for 2 mins by Fluo-4AM dye based fluorescence microscopic analysis; type: functional, cell-based
[7] = molecular target: 5-hydroxytryptamine receptor 2A (Homo sapiens) (UniProt P28223); test: Antagonist activity at 5-HT2A receptor in human MCF7 cells assessed as reduction in ERK1/2 phosphorylation at 5 uM after 24 to 48 hrs by Western blot analysis relative to control; type: functional, cell-based
[8] = tested on: MCF7; test: Induction of apoptosis in human MCF7 cells assessed as early apoptotic cells at 5 uM after 48 hrs by Annexin V-FITC/propidium iodide staining based flow cytometry; type: functional, cell-based
[9] = tested on: MCF7; test: Antiproliferative activity against human MCF7 cells after 72 hrs by MTT assay; type: functional, cell-based; conditions: MCF7, 72 h
[10] = tested on: MCF7; test: Induction of apoptosis in human MCF7 cells at 5 uM after 48 hrs by Annexin V-FITC/propidium iodide staining based flow cytometry; type: functional, cell-based
[11] = tested on: MCF7; test: Induction of morphological changes in human MCF7 cells assessed as loss in cellular integrity at 5 uM after 72 hrs; type: functional, cell-based
[12] = tested on: MCF7; test: Antiproliferative activity against human MCF7 cells at 5 uM after 72 hrs in presence of serotonin by MTT assay; type: functional, cell-based
[13] = tested on: MCF7; test: Cell cycle arrest in human MCF7 cells assessed as accumulation at G1/S phase after 48 hrs by propidium iodide staining based flow cytometry; type: functional

Chain of 5-hydroxytryptamine receptor 2A (Homo sapiens) (P28223 whole entry): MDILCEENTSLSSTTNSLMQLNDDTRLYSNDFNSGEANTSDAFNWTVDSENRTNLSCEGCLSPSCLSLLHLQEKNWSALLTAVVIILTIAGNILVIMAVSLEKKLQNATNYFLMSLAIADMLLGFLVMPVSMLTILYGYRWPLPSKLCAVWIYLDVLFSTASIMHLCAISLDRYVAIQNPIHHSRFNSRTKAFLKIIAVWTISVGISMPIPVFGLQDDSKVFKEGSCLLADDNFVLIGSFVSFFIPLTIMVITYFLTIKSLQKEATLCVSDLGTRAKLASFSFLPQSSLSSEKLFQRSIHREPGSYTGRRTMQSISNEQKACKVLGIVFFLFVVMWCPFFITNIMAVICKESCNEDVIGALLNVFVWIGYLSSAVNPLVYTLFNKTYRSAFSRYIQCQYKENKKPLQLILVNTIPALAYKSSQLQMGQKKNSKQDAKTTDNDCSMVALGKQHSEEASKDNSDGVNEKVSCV

| SMILES | Activity [1] | Activity [2] | Activity [3] | Activity [4] | CC50 at 72 h [5] | inhibition [6] | inhibition [7] | Activity [8] | IC50 [9] | Activity [10] | Activity [11] | Activity [12] | Activity [13] |
| --- | --- | --- | --- | --- | --- | --- | --- | --- | --- | --- | --- | --- | --- |
| CCN1CCN(c2nc3ccccc3c(-c3ccccc3)c2C)CC1 | inactive | Active | Active | Active | > 24 µM | Active | > 50% | Active | 6.15 µM | Active | Active | inactive | inactive |
| Cc1c(N2CCN(C)CC2)nc2ccccc2c1-c1ccccc1 |  |  |  |  |  | Active |  |  |  |  |  |  |  |
| CCN1CCN(c2nc3ccccc3c(-c3ccccc3)c2-c2ccccc2)CC1 |  |  |  | Active | > 24 µM | Active |  |  | 7.48 µM |  |  | inactive |  |
